Each compound was assayed against H1047R PIK3CA enzyme (Homo sapiens, UniProt P42336, H1047R) (assay: ADP-Glo Biochemical PIK3CA Kinase Assay).
Chain of H1047R PIK3CA enzyme (P42336 whole entry H1047R): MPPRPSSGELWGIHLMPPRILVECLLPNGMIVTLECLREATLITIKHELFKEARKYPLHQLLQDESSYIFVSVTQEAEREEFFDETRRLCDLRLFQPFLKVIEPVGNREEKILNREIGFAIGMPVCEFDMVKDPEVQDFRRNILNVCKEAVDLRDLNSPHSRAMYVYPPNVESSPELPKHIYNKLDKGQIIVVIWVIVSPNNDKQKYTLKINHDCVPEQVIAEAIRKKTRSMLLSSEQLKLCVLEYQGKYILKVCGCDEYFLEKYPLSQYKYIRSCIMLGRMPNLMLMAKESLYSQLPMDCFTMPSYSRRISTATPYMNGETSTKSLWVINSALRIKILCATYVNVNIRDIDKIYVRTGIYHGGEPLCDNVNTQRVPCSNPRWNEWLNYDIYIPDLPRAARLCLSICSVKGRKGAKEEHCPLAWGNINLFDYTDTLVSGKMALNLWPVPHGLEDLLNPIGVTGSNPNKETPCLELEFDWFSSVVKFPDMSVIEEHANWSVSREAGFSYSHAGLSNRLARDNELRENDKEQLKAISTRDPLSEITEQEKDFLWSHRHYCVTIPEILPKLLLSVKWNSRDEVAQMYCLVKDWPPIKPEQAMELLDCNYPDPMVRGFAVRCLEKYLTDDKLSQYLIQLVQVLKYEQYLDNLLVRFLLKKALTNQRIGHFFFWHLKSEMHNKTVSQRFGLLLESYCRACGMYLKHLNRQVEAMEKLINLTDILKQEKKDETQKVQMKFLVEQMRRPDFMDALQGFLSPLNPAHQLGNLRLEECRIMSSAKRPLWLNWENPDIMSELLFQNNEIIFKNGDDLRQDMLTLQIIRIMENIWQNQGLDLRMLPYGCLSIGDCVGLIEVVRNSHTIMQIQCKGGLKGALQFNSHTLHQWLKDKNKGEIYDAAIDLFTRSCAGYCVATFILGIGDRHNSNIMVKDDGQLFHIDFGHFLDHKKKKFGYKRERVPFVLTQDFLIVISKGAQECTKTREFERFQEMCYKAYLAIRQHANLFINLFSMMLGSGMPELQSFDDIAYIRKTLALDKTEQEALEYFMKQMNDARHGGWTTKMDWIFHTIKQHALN
Chain of H1047R PIK3CA enzyme (P27986 whole entry partner): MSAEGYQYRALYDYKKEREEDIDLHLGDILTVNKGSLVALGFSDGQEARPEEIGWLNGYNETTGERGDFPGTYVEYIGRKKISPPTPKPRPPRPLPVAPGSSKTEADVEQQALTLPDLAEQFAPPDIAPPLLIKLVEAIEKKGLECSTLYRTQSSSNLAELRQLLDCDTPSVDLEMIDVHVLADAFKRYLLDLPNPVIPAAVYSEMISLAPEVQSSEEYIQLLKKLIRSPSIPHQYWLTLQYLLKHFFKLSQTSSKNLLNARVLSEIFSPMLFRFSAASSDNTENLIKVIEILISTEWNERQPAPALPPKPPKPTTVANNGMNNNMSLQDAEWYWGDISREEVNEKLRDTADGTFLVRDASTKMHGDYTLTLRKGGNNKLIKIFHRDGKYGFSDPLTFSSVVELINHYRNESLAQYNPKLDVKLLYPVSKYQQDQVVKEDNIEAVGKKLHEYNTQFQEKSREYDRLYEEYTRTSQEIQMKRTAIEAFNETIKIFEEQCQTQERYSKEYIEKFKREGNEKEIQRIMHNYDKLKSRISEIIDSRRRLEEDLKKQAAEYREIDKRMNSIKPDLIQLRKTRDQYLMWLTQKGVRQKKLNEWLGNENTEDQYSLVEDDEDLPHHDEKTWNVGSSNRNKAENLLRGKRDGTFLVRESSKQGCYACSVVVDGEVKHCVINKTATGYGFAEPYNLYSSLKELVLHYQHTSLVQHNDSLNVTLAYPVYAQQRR

IC50 [nM]	Structure (SMILES)
1000 to 10000	O=C1NC(c2cc(F)ccc2Cl)c2c(NC(=O)c3c[nH]c4cccc(Cl)c34)cc(Br)cc21 (stereo not shown) [Compound I-956]
500 to 1000	Cc1ccccc1[C@H]1NC(=O)c2cc(N)cc(NC(=O)c3nsc4ccccc34)c21 [Compound I-91]
≤ 100	C[C@H](C#N)n1cc(-c2cc(NC(=O)c3cc(F)cc(C(F)(F)F)c3)c3c(c2)C(=O)N[C@H]3c2cc(F)ccc2Cl)cn1 (single isomer, unassigned) [Compound I-1916]
10000 to 100000	NS(=O)(=O)c1cc(-c2ccc3ncnn3c2)cc2c1[C@H](c1cc(F)ccc1Cl)NC2=O [Compound I-2101]
10000 to 100000	O=C1NC(c2cc(F)ccc2Cl)c2c(Nc3ncnc4ccccc34)cc(Br)cc21 (stereo not shown) [Compound I-864]
100 to 500	O=C1NC(c2cc(F)ccc2Cl)c2c(NC(=O)N3CC4(CC4)c4ccccc43)cc(Br)cc21 (stereo not shown) [Compound I-1462]
1000 to 10000	O=C1NC(c2cccnc2Cl)c2c(NC(=O)c3nsc4ccccc34)cccc21 (stereo not shown) [Compound I-158]
10000 to 100000	Cn1nc(Nc2cc(Br)cc3c2C(c2cc(F)ccc2Cl)NC3=O)c2ccccc21 (stereo not shown) [Compound I-1349]
10000 to 100000	C[C@@H](O)c1cc(-c2ccc3ncnn3c2)cc2c1[C@H](c1cc(F)ccc1Cl)NC2=O (single isomer, unassigned) [Compound I-2231]
≤ 100	O=C(Nc1cc(OC2CCC2(F)F)cc2c1C(c1cc(F)ccc1Cl)NC2=O)c1cc(F)cc(C(F)(F)F)c1 (stereo not shown) [Compound I-1198]
10000 to 100000	O=C1NC(c2cc(F)ccc2Cl)c2c(NS(=O)(=O)N3CCc4ccccc43)cc(Br)cc21 (stereo not shown) [Compound I-1287]
≤ 100	O=C(Nc1cc(-c2ccc3ncnn3n2)cc2c1[C@H](c1cc(F)ccc1Cl)NC2=O)c1cc(F)cc(C(F)(F)F)c1 [Compound I-1650]
1000 to 10000	O=C1NC(c2cc(F)ccc2Cl)c2c(NC(=O)C3CCC4C(C3)C4(F)F)cc(Br)cc21 (stereo not shown) [Compound I-1623]
1000 to 10000	O=C1N[C@H](c2cc(F)ccc2Cl)c2c(NC(=O)N3C[C@@](O)(C(F)F)c4cc(F)ccc43)cc(F)cc21 (single isomer, unassigned) [Compound I-2632]
500 to 1000	O=C(Nc1cccc2c1C(C1=C(F)CCCC1)NC2=O)c1cc(F)cc(C(F)(F)F)c1 (racemic) [Compound I-1790]
10000 to 100000	C[C@H](c1nn[nH]c1C(=O)Nc1cccc2c1[C@H](c1cc(F)ccc1Cl)NC2=O)C(F)(F)F (single isomer, unassigned) [Compound I-2269]
≤ 100	Cn1nccc1C(O)c1cc(NC(=O)c2cc(F)cc(C(F)(F)F)c2)c2c(c1)C(=O)NC2c1cc(F)ccc1Cl (stereo not shown) [Compound I-1389]
100 to 500	COc1ccnc(Oc2cc(NC(=O)c3cc(F)cc(C(F)(F)F)c3)c3c(c2)C(=O)NC3c2cc(F)ccc2Cl)n1 (stereo not shown) [Compound I-1143]
≤ 100	O=C(Nc1cc(NC2CCC2(F)F)cc2c1C(c1cc(F)ccc1Cl)NC2=O)c1cc(F)cc(C(F)(F)F)c1 (stereo not shown) [Compound I-530]

Further lines, the compound ahead of its results:

Structure (SMILES)	IC50 [nM]
O=C1NC(c2cc(F)ccc2Cl)c2c(NC(=O)C3CCCC(O)C3)cc(-c3ccc4ncnn4c3)cc21 (stereo not shown) [Compound I-1723]	10000 to 100000
COC(=O)c1cc(NC(=O)c2nsc3ccccc23)c2c(n1)C(=O)NC2c1ccccc1Cl (stereo not shown) [Compound I-222, Methyl 4-(1,2-benzothiazole-3-amido)-5-(2-chlorophenyl)-7-oxo-5H,6H,7H-pyrrolo[3,4-b]pyridine-2-carboxylate]	100 to 500
O=C(Nc1cc(O[C@H]2CCCNC2)cc2c1C(c1cc(F)ccc1Cl)NC2=O)c1cc(F)cc(C(F)(F)F)c1 (mixture of isomers) [Compound I-1527]	100 to 500
O=C1NC(c2cc(F)ccc2Cl)c2c(NC(=O)[C@@H]3CC[C@H](O)C3)cc(Br)cc21 (single isomer, unassigned) [Compound I-1975]	10000 to 100000
O=C1NC(c2cccc(F)c2F)c2c(NC(=O)c3csc4ccccc34)ccnc21 (stereo not shown) [Compound I-15, N-(5-(2,3-Difluorophenyl)-7-oxo-6,7-dihydro-5H-pyrrolo[3,4-b]pyridin-4-yl)benzo[b]thiophene-3-carboxamide]	100 to 500
O=C1N[C@@H](c2cc(F)ccc2Cl)c2c(NC(=O)N3C[C@@H](CO)[C@H](C(F)(F)F)C3)cccc21 (single isomer, unassigned) [Compound I-2277]	1000 to 10000
Cc1ccccc1C1NC(=O)c2c(CO)ccc(NC(=O)c3csc4ccccc34)c21 (stereo not shown) [Compound I-224]	≤ 100
O=C1NC(c2ccccc2Cl)c2c(NC(=O)c3nsc4ccccc34)ccnc21 (stereo not shown) [Compound I-172]	100 to 500
C[C@@H](C#N)Cn1cc(-c2cc(NC(=O)N3C[C@@H](O)c4cc(F)ccc43)c3c(c2)C(=O)N[C@@H]3c2cc(F)ccc2Cl)cn1 (single isomer, unassigned) [Compound I-2505]	1000 to 10000
Cn1cc(-c2cc(NC(=O)c3cc(F)cc(Cl)c3)c3c(n2)C(=O)NC3c2cc(F)ccc2Cl)ccc1=O (stereo not shown) [Compound I-456]	≤ 100
O=C(Nc1cc(O[C@@H]2COC[C@H]2O)cc2c1C(c1cc(F)ccc1Cl)NC2=O)c1cc(F)cc(C(F)(F)F)c1 (mixture of isomers) [Compound I-1192]	≤ 100
O=C1N[C@@H](c2cc(F)ccc2Cl)c2c(NC(=O)[C@H]3CCC[C@H](OC(F)(F)F)C3)cccc21 (single isomer, unassigned) [Compound I-2212]	10000 to 100000
CC(C)(CN)n1cc(-c2cc(NC(=O)N3C[C@@](O)(C(F)(F)F)c4cc(F)ccc43)c3c(c2)C(=O)N[C@H]3c2cc(F)ccc2Cl)cn1 (single isomer, unassigned) [Compound I-2651]	1000 to 10000
N#Cc1ccccc1C1NC(=O)c2cccc(NC(=O)c3nsc4ccccc34)c21 (stereo not shown) [Compound I-197]	1000 to 10000
COc1ncc(-c2cc(NC(=O)c3cc(F)cc(C(F)(F)F)c3)c3c(c2)C(=O)NC3c2cc(F)ccc2Cl)cn1 (stereo not shown) [Compound I-782]	≤ 100
Cc1ccccc1C1NC(=O)c2c(C)ncc(NC(=O)c3cc(F)cc(C(F)(F)F)c3)c21 (stereo not shown) [Compound I-244, 3-Fluoro-N-(4-methyl-3-oxo-1-(o-tolyl)-2,3-dihydro-1H-pyrrolo[3,4-c]pyridin-7-yl)-5-(trifluoromethyl)benzamide]	100 to 500
C[C@@H](c1cc(NC(=O)c2cc(F)cc(C(F)(F)F)c2)c2c(c1)C(=O)N[C@H]2c1cc(F)ccc1Cl)S(C)(=O)=O (single isomer, unassigned) [Compound I-1641]	≤ 100
O=C1NC(c2cc(F)ccc2Cl)c2c(NC(=O)C34CC5CC(C3)CC(C(F)(F)F)(C5)C4)cc(Br)cc21 (stereo not shown) [Compound I-1183]	≤ 100
O=C(Nc1cc(-c2ccn3nc(Cl)nc3c2)cc2c1[C@@H](c1cc(F)ccc1Cl)NC2=O)c1cc(F)cc(C(F)(F)F)c1 [Compound I-1606]	100 to 500
O=C1NC(c2cc(F)ccc2Cl)c2c(NC(=O)C3CCOCC3)cc(-c3ccc4ncnn4c3)cc21 (stereo not shown) [Compound I-1821]	10000 to 100000
O=C1NC(c2cc(F)ccc2Cl)c2c(Nc3nnc4n3CCCC4)cc(-c3ccc4ncnn4c3)cc21 (stereo not shown) [Compound I-2059]	10000 to 100000

Structure (SMILES)	IC50 [nM]
O=C(Nc1cc(Br)cc2c1C(c1cc(F)ccc1Cl)NC2=O)c1cc(Cl)cc2c1NCCO2 (stereo not shown) [Compound I-1242]	1000 to 10000
O=C1NC(c2cc(F)ccc2Cl)c2c(NC(=O)[C@@H]3CC[C@@H](O)C3)cc(Br)cc21 (single isomer, unassigned) [Compound I-1976]	10000 to 100000
O=C(Nc1cccc2c1C(C1(O)CCCCC1)NC2=O)c1cc(F)cc(C(F)(F)F)c1 (stereo not shown) [Compound I-1967]	10000 to 100000
O=CNc1nc(-c2cc(NC(=O)c3cc(F)cc(C(F)(F)F)c3)c3c(c2)C(=O)NC3c2cc(F)ccc2Cl)ccc1O (stereo not shown) [Compound I-1552]	≤ 100
[2H]c1nc2ccc(-c3cc(NC(=O)c4cc(F)cc(C(F)(F)F)c4)c4c(c3)C(=O)NC4c3cc(F)ccc3Cl)cn2n1 (stereo not shown) [Compound I-1589]	≤ 100
O=C1CC(c2cc(NC(=O)c3cc(F)cc(C(F)(F)F)c3)c3c(c2)C(=O)NC3c2cc(F)ccc2Cl)CN1 (stereo not shown) [Compound I-1360]	≤ 100
O=C(Nc1cc(-c2cn3ncnc3cn2)cc2c1C(c1cc(F)ccc1Cl)NC2=O)c1cc(F)cc(Cl)c1 (stereo not shown) [Compound I-2267]	1000 to 10000
O=C(Nc1cccc2c(=O)[nH]n(-c3cc(F)ccc3Cl)c12)c1cc(F)cc(C(F)(F)F)c1 [Compound I-323]	1000 to 10000
O=C1Cc2cc(NC(=O)c3cc(F)cc(C(F)(F)F)c3)ccc2C(c2ccccc2Cl)N1 (stereo not shown) [Compound I-1177]	1000 to 10000
O=C(Nc1cccc2c1C(C1CNC1)NC2=O)c1cc(F)cc(C(F)(F)F)c1 (stereo not shown) [Compound I-1833]	10000 to 100000
O=C(Nc1cc(-c2ccc3nnc(Cl)n3c2)cc2c1C(c1cc(F)ccc1Cl)NC2=O)c1cc(F)cc(C(F)(F)F)c1 (stereo not shown) [Compound I-1574]	≤ 100
O=C(Nc1cc(-c2cn3ncnc3cn2)cc2c1C(c1cc(F)ccc1Cl)NC2=O)c1cc(F)cc(C(F)(F)F)c1 (stereo not shown) [Compound I-1335]	≤ 100
O=C(Nc1cccc2c1C(c1cc(F)ccc1Cl)NC2=O)c1ccccc1 (stereo not shown) [Compound I-1681]	10000 to 100000
O=C(Nc1cc(N2CC(F)(F)C2)nc2c1[C@@H](c1cc(F)ccc1Cl)NC2=O)c1cc(F)cc(C(F)(F)F)c1 [Compound I-367]	1000 to 10000
Cc1ccccc1C1NCCc2cccc(NC(=O)c3cc(F)cc(C(F)(F)F)c3)c21 (stereo not shown) [Compound I-1962]	10000 to 100000
O=C(Nc1cc(O)cc2c1C(c1cc(F)ccc1Cl)NC2=O)c1cc(F)cc(Cl)c1 (stereo not shown) [Compound I-383]	≤ 100
O=C1NC(c2cc(F)ccc2Cl)c2c(NC(=O)[C@@H](O)c3cc(F)cc(F)c3)cc(Br)cc21 (single isomer, unassigned) [Compound I-803]	10000 to 100000
COc1cccc(C2NC(=O)c3cccc(NC(=O)c4cc(F)cc(C(F)(F)F)c4)c32)c1 (stereo not shown) [Compound I-687]	10000 to 100000
CC(=O)N1CCCCC1C(=O)Nc1cc(-c2ccc3ncnn3c2)cc2c1C(c1cc(F)ccc1Cl)NC2=O (mixture of isomers) [Compound I-1804]	10000 to 100000
N#Cc1cnc2ncc(-c3cc(NC(=O)c4cc(F)cc(C(F)(F)F)c4)c4c(c3)C(=O)N[C@H]4c3cc(F)ccc3Cl)cn12 [Compound I-1859]	≤ 100
O=C1NC(c2c(F)cccc2Cl)c2c(NC(=O)c3nsc4ccccc34)cccc21 (stereo not shown) [Compound I-99]	500 to 1000

Source: US12581252B2, “Substituted pyrrolo[3,4-b]pyridines as PI3K-α inhibitors” (Relay Therapeutics, Inc., priority 2020, dated 2026)
